# Test results reported in BindingDB's records for doi:10.1016/j.chembiol.2017.03.002 (Jagiellonian University, 2017).
# Molecular target: T1, Ubiquitin carboxyl-terminal hydrolase 2 [258-605] (Homo sapiens, UniProt O75604)
# T1 construct: 258-605
# T1 sequence (O75604 whole entry): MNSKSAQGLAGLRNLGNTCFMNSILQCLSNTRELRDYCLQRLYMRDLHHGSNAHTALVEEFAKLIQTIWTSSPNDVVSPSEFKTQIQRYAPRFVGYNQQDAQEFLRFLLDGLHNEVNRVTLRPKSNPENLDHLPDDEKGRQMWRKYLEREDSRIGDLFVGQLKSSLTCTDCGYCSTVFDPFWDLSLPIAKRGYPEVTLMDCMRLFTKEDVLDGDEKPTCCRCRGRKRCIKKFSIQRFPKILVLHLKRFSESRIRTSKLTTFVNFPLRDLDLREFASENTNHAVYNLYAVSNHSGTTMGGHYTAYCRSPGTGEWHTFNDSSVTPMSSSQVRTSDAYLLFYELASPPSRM
# Test: Ub-AMC-Hydrolysis Assay
# Protocol: The assays were performed using Infinite 200 PRO - Tecan plate reader and 96-well, black Greiner microplates in a […] reaction volume. […]
smiles,measurement,value
COC(=O)C1CC[C@@]2(C)[C@H](CC[C@@H]3[C@@H]2CC[C@]2(C)[C@@H]([C@H](C)CCC(=O)O)CC[C@@H]32)C1 (stereo partly specified) [LCAE],IC50,5.8 µM
